Test results taken from patent US8841321B2, “Quinoline derivatives as antibacterial agents” (Janssen Pharmaceutica NV, priority 2005, dated 2014).
In brackets after ≈: the same amount, converted by molar mass.

Legend:
[1] = system: EFA 29212 (Enterococcus faecalis (ATCC29212)); assay: Microtitre plate assay, IC90 determination; type: cell-based; details: Enterococcus faecalis (ATCC29212)
[2] = system: PAE 27853 (Pseudomonas aeruginosa (ATCC27853)); assay: Microtitre plate assay, IC90 determination; type: cell-based; details: Pseudomonas aeruginosa (ATCC27853)
[3] = system: BSU 43639 (Bacillus subtilis (ATCC43639)); assay: Microtitre plate assay, IC90 determination; type: cell-based; details: Bacillus subtilis (ATCC43639)
[4] = system: STA 25923 (Staphylococcus aureus (ATCC25923)); assay: Microtitre plate assay, IC90 determination; type: cell-based; details: Staphylococcus aureus (ATCC25923)
[5] = system: SPN 6305 (Streptococcus pneumoniae (ATCC6305)); assay: Microtitre plate assay, IC90 determination; type: cell-based; details: Streptococcus pneumoniae (ATCC6305)
Procedure, shortened: (§1)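 Growth-inhibition endpoint: resazurin added 3 h after inoculation, plates incubated overnight, fluorescence at 530/590 nm after 24 h at 37 °C. Inocula of roughly 10–60 CFU per well in Mueller-Hinton medium; compounds titrated five-fold. IC90 reported as μg/ml.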

[6] = system: STA 29213 (Staphylococcus aureus (ATCC29213)); assay: Microtitre plate assay, IC90 determination; type: cell-based; details: Staphylococcus aureus (ATCC29213)
Procedure, shortened: as §1

[7] = system: SPY 8668 (Streptococcus pyogens (ATCC8668)); assay: Microtitre plate assay, IC90 determination; type: cell-based; details: Streptococcus pyogens (ATCC8668)
[8] = system: LMO 49594 (Listeria monocytogenes (ATCC49594)); assay: Microtitre plate assay, IC90 determination; type: cell-based; details: Listeria monocytogenes (ATCC49594)
[9] = system: STA RMETH (methicilline resistant Staphylococcus aureus (MRSA), a clinical isolate from the University of Antwerp); assay: Microtitre plate assay, IC90 determination; type: cell-based
[10] = system: methicillin resistant S. aureus (MRSA); assay: Time kill assay (broth microdilution method); type: cell-based, Staphylococcus aureus
Excerpt: (§2) Bactericidal or bacteriostatic activity of the compounds may be determined in a time kill assay using the broth microdilution method*. In a time kill assay on Staphylococcus aureus and methicillin resistant S. aureus (MRSA), the starting inoculum of S. aurues and MRSA is 10^6 CPU/ml in Muller Hinton broth. The antibacterial compounds are used at the concentration of 0.1 to 10 times the MIC (i.e. IC90 as determined in microtitre plate assay). Wells receiving no antibacterial agent constitute the culture growth control. The plates containing the microorganism and the test compounds are incubated at 37° C. After 0, 4, 24, and 48 hrs of incubation samples are removed for determination of viable counts by serial dilution (10^−1 to 10^−6) in sterile PBS and plating (200 μl) on Mueller Hinton agar. The plates are incubated at 37° C. for 24 hours and the number of colonies are determined. Killing curves can be constructed by plotting the log10CFU per ml versus time. A bactericidal effect is commonly defined as 3-log10 decrease in number of CFU per ml as compared to untreated inoculum. The potential carryover effect of the drugs is removed by serial dilutions and counting the colonies at highest dilution used for plating. No carryover effect is observed at the dilution of 10^−2 used for plating. […] Antimicrob. Agents Chemother. 40, 839-845 (1996).

Staphylococcus aureus = assay: Time kill assay (broth microdilution method); type: cell-based; details: S. aureus; for bactericidal activity in time kill assay: observed at 1 and 10 times MIC90
Excerpt: as §2

Row | SMILES | IC90 (μg/ml) EFA 29212 [1] | IC90 (μg/ml) PAE 27853 [2] | IC90 (μg/ml) BSU 43639 [3] | IC90 (μg/ml) STA 25923 [4] | IC90 (μg/ml) SPN 6305 [5] | IC90 (μg/ml) STA 29213 [6] | melting point | IC90 (μg/ml) SPY 8668 [7] | IC90 (μg/ml) LMO 49594 [8] | IC90 (μg/ml) STA RMETH [9] | bactericidal activity in time kill assay [10] | bactericidal activity in time kill assay (Staphylococcus aureus) | MIC (1×MIC; MIC i.e. IC90 as determined in microtitre plate assay) (Staphylococcus aureus) | growth of treated samples in time kill assay (Staphylococcus aureus; at 0.1 times the MIC)
1 | COc1nc2ccc(Br)cc2cc1C(c1ccccc1)C(O)(CCCCN(C)C)c1ccc2ccccc2c1 (stereo not shown) [Compound 22] | 4.1 µg/mL (≈ 7.03 µM) | 4.1 µg/mL (≈ 7.03 µM) | 58.4 µg/mL (≈ 100 µM) | 46.4 µg/mL (≈ 79.5 µM) | 58.4 µg/mL (≈ 100 µM) | 9.3 µg/mL (≈ 15.9 µM) | 166 °C | 46.4 µg/mL (≈ 79.5 µM) | 11.6 µg/mL (≈ 19.9 µM) | 58.4 µg/mL (≈ 100 µM) | – | – | – | –
2 | O=C(O)c1cn(C2CC2)c2cc(N3CCNCC3)c(F)cc2c1=O [ciprofloxacin, reference compound] | – | – | – | – | – | – | – | – | – | – | no bactericidal effect | bactericidal activity | – | –
3 | COc1nc2ccc(Br)cc2cc1C(c1ccccc1)C(O)(CCCCN(C)C)c1ccc2ccccc2c1 (stereo not shown) [Compound 17] | 5.2 µg/mL (≈ 8.91 µM) | 2.3 µg/mL (≈ 3.94 µM) | 5.2 µg/mL (≈ 8.91 µM) | 2.3 µg/mL (≈ 3.94 µM) | 11.6 µg/mL (≈ 19.9 µM) | 9.3 µg/mL (≈ 15.9 µM) | 170 °C | 4.6 µg/mL (≈ 7.88 µM) | 5.8 µg/mL (≈ 9.94 µM) | 10.4 µg/mL (≈ 17.8 µM) | – | – | – | –
4 | COc1nc2ccc(Br)cc2cc1C(c1ccccc1)C(O)(CCCCN(C)C)c1ccc2ccccc2c1 (stereo not shown) [Compound 18] | 46.4 µg/mL (≈ 79.5 µM) | 23.2 µg/mL (≈ 39.8 µM) | – | – | 2.9 µg/mL (≈ 4.97 µM) | 46.4 µg/mL (≈ 79.5 µM) | – | 11.6 µg/mL (≈ 19.9 µM) | – | – | marked bactericidal activity | bactericidal activity | 12 µg/mL (≈ 20.6 µM) | followed the control in growth
